Results from article PMC9532703, “A novel small molecule RK-019 inhibits FGFR2-amplification gastric cancer cell proliferation and induces apoptosis in vitro and in vivo” (Frontiers in Pharmacology, 2022).

Columns and labels:
Test in all cases: Kinase selectivity panel
Assay type in all cases: biochemical
Conditions in all cases: read-out: Inhibition(%) @ 1 µM RK-019
[1] = target: T1, PKA(h) (Homo sapiens, UniProt P17612)
T1 construct: purchased Eurofins Discovery Services (KinaseProfiler)
Procedure: (§1) Median-inhibitory concentration (IC50) and inhibition ratio of kinases by RK-019 was assessed by Eurofins Discovery Services (Dundee, United Kingdom) using the ATP-site competition binding assay in vitro. Firstly, gradient concentration of RK-019 against FGFRs, including FGFR1, FGFR2, FGFR3, and FGFR4, were tested. IC50 value was calculate by the GraphPad Prism software (v8.4.3, GraphPad Software, California, United States). Then, to measure the selectivity prolife of RK-019, a panel of 422 recombinant human kinases was screened at a concentration of 1 µM RK-019. Kinase MAP was drawn by webtools from Cell Signaling Technology, Inc. (www.cellsignal.com).

[2] = target: T2, CK1γ1(h) (Homo sapiens, UniProt Q9HCP0)
T2 construct: purchased Eurofins Discovery Services (KinaseProfiler)
Procedure: as §1

[3] = target: T3, MYO3B(h) (Homo sapiens, UniProt Q8WXR4)
T3 construct: purchased Eurofins Discovery Services (KinaseProfiler)
Procedure: as §1

[4] = target: T4, IRR(h) (Homo sapiens, UniProt P14616)
T4 construct: purchased Eurofins Discovery Services (KinaseProfiler)
Procedure: as §1

[5] = target: T5, PKBα(h) (Homo sapiens, UniProt P31749)
T5 construct: purchased Eurofins Discovery Services (KinaseProfiler)
Procedure: as §1

[6] = target: T6, NEK9(h) (Homo sapiens, UniProt Q8TD19)
T6 construct: purchased Eurofins Discovery Services (KinaseProfiler)
Procedure: as §1

[7] = target: T7, Tie2(Y897S)(h) (Homo sapiens, UniProt Q02763, Y897S)
T7 construct: purchased Eurofins Discovery Services (KinaseProfiler)
Procedure: as §1

[8] = target: T8, ATM(h) (Homo sapiens, UniProt Q13315)
T8 construct: purchased Eurofins Discovery Services (KinaseProfiler)
Procedure: as §1

[9] = target: T9, PDHK2(h) (Homo sapiens, UniProt Q15119)
T9 construct: purchased Eurofins Discovery Services (KinaseProfiler)
Procedure: as §1

[10] = target: T10, JNK2α2(h) (Homo sapiens, UniProt P45984)
T10 construct: purchased Eurofins Discovery Services (KinaseProfiler)
Procedure: as §1

[11] = target: T11, IKKα(h) (Homo sapiens, UniProt O15111)
T11 construct: purchased Eurofins Discovery Services (KinaseProfiler)
Procedure: as §1

[12] = target: T12, MEK2(h) (Homo sapiens, UniProt P36507)
T12 construct: purchased Eurofins Discovery Services (KinaseProfiler)
T12 sequence (P36507 whole entry): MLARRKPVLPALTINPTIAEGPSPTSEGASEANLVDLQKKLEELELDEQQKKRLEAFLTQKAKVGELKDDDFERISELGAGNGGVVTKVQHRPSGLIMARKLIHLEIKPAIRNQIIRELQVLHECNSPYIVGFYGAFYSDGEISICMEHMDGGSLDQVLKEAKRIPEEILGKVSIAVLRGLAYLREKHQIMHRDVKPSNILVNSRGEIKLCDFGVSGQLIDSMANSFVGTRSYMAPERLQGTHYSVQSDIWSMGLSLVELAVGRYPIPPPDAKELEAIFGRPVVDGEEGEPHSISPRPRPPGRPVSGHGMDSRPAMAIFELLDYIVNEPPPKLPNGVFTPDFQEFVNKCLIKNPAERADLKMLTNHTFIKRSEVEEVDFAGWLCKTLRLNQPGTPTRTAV
Procedure: as §1

[13] = target: T13, KDR(h) (Homo sapiens, UniProt P35968)
T13 construct: purchased Eurofins Discovery Services (KinaseProfiler)
Procedure: as §1

[14] = target: T14, JAK2(h) (Homo sapiens, UniProt O60674)
T14 construct: purchased Eurofins Discovery Services (KinaseProfiler)
Procedure: as §1

[15] = target: T15, MLK2(h) (Homo sapiens, UniProt Q02779)
T15 construct: purchased Eurofins Discovery Services (KinaseProfiler)
Procedure: as §1

[16] = target: T16, PI3 Kinase (p110d/p85a)(m) (Mus musculus, UniProt O35904)
T16 construct: purchased Eurofins Discovery Services (KinaseProfiler)
T16 sequence (O35904 whole entry): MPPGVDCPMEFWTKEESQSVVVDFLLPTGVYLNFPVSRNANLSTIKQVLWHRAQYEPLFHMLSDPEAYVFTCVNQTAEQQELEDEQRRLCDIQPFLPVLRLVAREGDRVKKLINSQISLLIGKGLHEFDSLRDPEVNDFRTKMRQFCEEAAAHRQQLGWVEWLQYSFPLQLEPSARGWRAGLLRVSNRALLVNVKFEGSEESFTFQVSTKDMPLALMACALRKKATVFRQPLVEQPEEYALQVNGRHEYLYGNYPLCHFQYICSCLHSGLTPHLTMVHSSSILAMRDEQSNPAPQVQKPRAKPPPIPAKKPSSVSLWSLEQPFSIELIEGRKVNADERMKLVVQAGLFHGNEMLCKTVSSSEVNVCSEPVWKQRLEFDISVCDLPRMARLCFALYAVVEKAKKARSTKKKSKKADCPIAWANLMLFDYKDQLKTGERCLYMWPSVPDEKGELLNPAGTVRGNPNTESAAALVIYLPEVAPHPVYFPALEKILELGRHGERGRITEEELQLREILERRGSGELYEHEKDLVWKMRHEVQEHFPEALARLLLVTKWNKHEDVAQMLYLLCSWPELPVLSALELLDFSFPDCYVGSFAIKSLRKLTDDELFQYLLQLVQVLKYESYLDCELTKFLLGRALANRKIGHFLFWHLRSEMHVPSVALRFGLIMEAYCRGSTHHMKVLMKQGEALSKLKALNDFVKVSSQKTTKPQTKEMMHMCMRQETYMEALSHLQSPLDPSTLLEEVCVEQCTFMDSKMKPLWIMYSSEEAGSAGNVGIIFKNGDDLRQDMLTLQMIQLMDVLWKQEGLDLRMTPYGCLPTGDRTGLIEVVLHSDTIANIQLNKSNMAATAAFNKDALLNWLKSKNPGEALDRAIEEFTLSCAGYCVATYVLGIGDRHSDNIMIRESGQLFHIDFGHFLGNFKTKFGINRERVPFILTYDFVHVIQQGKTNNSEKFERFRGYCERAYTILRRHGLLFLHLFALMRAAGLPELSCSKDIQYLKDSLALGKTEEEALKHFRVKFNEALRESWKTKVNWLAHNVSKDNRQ
T16 sequence (P26450 2-724 partner): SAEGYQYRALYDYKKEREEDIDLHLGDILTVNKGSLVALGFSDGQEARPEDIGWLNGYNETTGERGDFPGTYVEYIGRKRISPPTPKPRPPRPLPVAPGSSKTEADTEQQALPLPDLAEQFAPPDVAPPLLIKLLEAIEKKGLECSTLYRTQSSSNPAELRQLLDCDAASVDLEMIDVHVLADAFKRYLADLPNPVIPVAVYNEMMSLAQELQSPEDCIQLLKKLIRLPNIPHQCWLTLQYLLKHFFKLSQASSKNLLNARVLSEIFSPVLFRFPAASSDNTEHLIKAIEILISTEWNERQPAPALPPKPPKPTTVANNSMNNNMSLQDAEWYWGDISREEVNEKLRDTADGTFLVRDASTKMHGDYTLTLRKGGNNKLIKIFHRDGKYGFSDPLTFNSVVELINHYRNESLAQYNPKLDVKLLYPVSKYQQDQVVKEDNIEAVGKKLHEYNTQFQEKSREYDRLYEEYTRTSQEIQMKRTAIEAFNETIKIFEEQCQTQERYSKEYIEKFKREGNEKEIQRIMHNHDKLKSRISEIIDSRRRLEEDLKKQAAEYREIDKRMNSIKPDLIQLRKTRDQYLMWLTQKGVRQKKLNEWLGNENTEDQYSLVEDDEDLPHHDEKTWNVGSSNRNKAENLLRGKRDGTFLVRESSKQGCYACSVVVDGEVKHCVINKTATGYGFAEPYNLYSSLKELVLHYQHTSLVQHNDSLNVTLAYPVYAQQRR
Procedure: as §1

[17] = target: T17, MELK(h) (Homo sapiens, UniProt Q14680)
T17 construct: purchased Eurofins Discovery Services (KinaseProfiler)
Procedure: as §1

[18] = target: T18, CDK5/p35(h) (Homo sapiens, UniProt Q00535)
T18 construct: purchased Eurofins Discovery Services (KinaseProfiler)
Procedure: as §1

[19] = target: T19, CDKL2(h) (Homo sapiens, UniProt Q92772)
T19 construct: purchased Eurofins Discovery Services (KinaseProfiler)
Procedure: as §1

[20] = target: T20, WNK4(h) (Homo sapiens, UniProt Q96J92)
T20 construct: purchased Eurofins Discovery Services (KinaseProfiler)
Procedure: as §1

[21] = target: T21, HIPK1(h) (Homo sapiens, UniProt Q86Z02)
T21 construct: purchased Eurofins Discovery Services (KinaseProfiler)
Procedure: as §1

[22] = target: T22, SGK3(h) (Homo sapiens, UniProt Q96BR1)
T22 construct: purchased Eurofins Discovery Services (KinaseProfiler)
Procedure: as §1

[23] = target: T23, PDK1(h) (Homo sapiens, UniProt O15530)
T23 construct: purchased Eurofins Discovery Services (KinaseProfiler)
Procedure: as §1

[24] = target: T24, ErbB4(h) (Homo sapiens, UniProt Q15303)
T24 construct: purchased Eurofins Discovery Services (KinaseProfiler)
Procedure: as §1

[25] = target: T25, PKCι(h) (Homo sapiens, UniProt P41743)
T25 construct: purchased Eurofins Discovery Services (KinaseProfiler)
Procedure: as §1

[26] = target: T26, Ret (V804L)(h) (Homo sapiens, UniProt P07949, V804L)
T26 construct: purchased Eurofins Discovery Services (KinaseProfiler)
Procedure: as §1

[27] = target: T27, Flt3(h) (Homo sapiens, UniProt P36888)
T27 construct: purchased Eurofins Discovery Services (KinaseProfiler)
Procedure: as §1

[28] = target: T28, PRK1(h) (Homo sapiens, UniProt Q16512)
T28 construct: purchased Eurofins Discovery Services (KinaseProfiler)
T28 sequence (Q16512 whole entry): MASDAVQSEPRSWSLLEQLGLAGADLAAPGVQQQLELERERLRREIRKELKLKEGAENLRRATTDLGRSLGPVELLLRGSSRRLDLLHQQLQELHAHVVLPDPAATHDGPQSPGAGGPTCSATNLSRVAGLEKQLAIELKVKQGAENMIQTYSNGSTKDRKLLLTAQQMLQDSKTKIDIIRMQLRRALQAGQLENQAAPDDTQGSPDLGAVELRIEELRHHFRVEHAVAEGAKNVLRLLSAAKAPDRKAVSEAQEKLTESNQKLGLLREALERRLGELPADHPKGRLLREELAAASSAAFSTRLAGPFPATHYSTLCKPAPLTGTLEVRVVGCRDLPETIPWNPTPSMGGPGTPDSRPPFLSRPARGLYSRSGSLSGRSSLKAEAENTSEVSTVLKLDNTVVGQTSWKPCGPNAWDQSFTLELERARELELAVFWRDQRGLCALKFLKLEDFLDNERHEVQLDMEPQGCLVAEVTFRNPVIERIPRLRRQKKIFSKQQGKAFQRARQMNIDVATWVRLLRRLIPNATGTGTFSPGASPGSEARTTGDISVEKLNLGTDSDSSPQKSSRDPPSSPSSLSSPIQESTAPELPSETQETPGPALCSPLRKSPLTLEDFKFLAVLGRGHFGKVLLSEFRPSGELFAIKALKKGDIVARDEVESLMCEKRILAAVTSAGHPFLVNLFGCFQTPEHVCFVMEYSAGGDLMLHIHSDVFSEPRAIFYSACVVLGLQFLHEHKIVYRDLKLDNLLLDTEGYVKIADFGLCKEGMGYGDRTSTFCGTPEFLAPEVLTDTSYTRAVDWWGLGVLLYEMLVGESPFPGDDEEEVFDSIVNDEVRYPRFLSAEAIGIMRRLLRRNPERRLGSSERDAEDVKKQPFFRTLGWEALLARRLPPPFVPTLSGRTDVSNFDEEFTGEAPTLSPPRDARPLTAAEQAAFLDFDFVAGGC
Procedure: as §1

[29] = target: T29, MAP4K4(h) (Homo sapiens, UniProt O95819)
T29 construct: purchased Eurofins Discovery Services (KinaseProfiler)
Procedure: as §1

[30] = target: T30, PI3 Kinase (p120g)(h) (Homo sapiens, UniProt P48736)
T30 construct: purchased Eurofins Discovery Services (KinaseProfiler)
Procedure: as §1

[31] = target: T31, cKit(h) (Homo sapiens, UniProt P10721)
T31 construct: purchased Eurofins Discovery Services (KinaseProfiler)
Procedure: as §1

[32] = target: T32, B-Raf(h) (Homo sapiens, UniProt P15056)
T32 construct: purchased Eurofins Discovery Services (KinaseProfiler)
T32 sequence (P15056 whole entry): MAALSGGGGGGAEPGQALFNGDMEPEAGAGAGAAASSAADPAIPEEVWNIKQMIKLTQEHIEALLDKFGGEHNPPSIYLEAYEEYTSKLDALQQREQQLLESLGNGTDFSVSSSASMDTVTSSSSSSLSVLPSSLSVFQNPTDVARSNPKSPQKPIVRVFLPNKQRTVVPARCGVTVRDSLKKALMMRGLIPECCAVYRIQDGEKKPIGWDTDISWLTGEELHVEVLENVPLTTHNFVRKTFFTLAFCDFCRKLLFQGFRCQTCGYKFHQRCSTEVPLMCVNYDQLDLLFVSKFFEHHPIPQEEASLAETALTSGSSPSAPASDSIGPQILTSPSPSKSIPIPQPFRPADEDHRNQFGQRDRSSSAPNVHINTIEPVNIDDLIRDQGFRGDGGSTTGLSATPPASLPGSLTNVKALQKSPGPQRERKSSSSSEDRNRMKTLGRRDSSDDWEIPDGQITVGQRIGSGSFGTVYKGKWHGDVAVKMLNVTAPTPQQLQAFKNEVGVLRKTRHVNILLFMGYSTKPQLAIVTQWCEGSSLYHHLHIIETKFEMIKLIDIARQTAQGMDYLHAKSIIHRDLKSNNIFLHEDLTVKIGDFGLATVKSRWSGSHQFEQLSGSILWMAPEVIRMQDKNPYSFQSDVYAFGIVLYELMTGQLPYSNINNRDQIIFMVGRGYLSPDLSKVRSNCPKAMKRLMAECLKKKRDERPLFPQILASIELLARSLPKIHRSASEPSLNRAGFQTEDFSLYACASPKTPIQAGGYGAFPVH
Procedure: as §1

[33] = target: T33, LTK(h) (Homo sapiens, UniProt P29376)
T33 construct: purchased Eurofins Discovery Services (KinaseProfiler)
Procedure: as §1

[34] = target: T34, Bmx(h) (Homo sapiens, UniProt P51813)
T34 construct: purchased Eurofins Discovery Services (KinaseProfiler)
T34 sequence (P51813 whole entry): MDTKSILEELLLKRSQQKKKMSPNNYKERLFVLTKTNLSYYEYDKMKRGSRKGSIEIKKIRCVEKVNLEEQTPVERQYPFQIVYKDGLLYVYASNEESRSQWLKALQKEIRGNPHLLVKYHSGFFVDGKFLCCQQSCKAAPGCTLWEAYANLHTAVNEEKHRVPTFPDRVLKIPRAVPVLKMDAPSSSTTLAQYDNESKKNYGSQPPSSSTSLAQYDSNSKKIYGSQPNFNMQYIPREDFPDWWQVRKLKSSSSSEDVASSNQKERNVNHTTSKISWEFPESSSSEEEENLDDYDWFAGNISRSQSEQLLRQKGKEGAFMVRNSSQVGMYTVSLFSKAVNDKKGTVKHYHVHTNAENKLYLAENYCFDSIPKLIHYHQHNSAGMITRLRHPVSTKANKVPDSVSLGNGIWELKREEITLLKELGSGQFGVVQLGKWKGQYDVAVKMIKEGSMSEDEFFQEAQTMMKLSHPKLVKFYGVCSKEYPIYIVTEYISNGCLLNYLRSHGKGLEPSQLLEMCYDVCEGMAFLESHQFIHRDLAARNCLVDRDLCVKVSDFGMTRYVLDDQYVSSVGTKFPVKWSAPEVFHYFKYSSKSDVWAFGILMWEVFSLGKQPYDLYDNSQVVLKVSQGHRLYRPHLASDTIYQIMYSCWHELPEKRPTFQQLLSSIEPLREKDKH
Procedure: as §1

[35] = target: T35, CHK2(R145W)(h) (Homo sapiens, UniProt O96017, R145W)
T35 construct: purchased Eurofins Discovery Services (KinaseProfiler)
Procedure: as §1

[36] = target: T36, mTOR(h) (Homo sapiens, UniProt P42345)
T36 construct: purchased Eurofins Discovery Services (KinaseProfiler)
Procedure: as §1

[37] = target: T37, STK33(h) (Homo sapiens, UniProt Q9BYT3)
T37 construct: purchased Eurofins Discovery Services (KinaseProfiler)
T37 sequence (Q9BYT3 whole entry): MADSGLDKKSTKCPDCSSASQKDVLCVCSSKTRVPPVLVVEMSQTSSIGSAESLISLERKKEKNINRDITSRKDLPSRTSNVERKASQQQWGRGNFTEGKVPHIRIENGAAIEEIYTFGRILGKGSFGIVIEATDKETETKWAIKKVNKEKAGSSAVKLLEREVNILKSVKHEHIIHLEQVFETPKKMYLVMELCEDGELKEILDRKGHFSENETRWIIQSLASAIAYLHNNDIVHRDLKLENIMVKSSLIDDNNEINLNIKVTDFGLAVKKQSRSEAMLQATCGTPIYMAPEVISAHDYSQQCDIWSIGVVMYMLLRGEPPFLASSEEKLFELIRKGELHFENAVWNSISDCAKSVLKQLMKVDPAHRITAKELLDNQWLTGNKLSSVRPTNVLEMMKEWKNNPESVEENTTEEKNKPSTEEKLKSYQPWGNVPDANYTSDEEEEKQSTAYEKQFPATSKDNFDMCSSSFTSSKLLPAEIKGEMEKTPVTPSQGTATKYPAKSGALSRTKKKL
Procedure: as §1

COc1cc(OC)cc(N(CCN[C@H](C)CO)c2ccc3ncc(-c4cnn(C)c4)c(=O)n3c2)c1 [RK-019, (R)-7-((3,5-dimethoxyphenyl) (2-((1-hydroxypropan-2-yl)amino)ethyl)amino)-3-(1-methyl-1H-pyrazol-4-yl)-4H-pyrido [1,2-a]pyrimidin-4-one]
activity at 1 µM [1]: 94% | activity at 1 µM [2]: 92% | activity at 1 µM [3]: 106% | activity at 1 µM [4]: 104% | activity at 1 µM [5]: 102% | activity at 1 µM [6]: 91% | activity at 1 µM [7]: 77% | activity at 1 µM [8]: 105% | activity at 1 µM [9]: 104% | activity at 1 µM [10]: 99% | activity at 1 µM [11]: 100% | activity at 1 µM [12]: 85% | activity at 1 µM [13]: 9% | activity at 1 µM [14]: 106% | activity at 1 µM [15]: 103% | activity at 1 µM [16]: 98% | activity at 1 µM [17]: 104% | activity at 1 µM [18]: 106% | activity at 1 µM [19]: 110% | activity at 1 µM [20]: 86% | activity at 1 µM [21]: 93% | activity at 1 µM [22]: 97% | activity at 1 µM [23]: 110% | activity at 1 µM [24]: 105% | activity at 1 µM [25]: 100% | activity at 1 µM [26]: 92% | activity at 1 µM [27]: 123% | activity at 1 µM [28]: 105% | activity at 1 µM [29]: 82% | activity at 1 µM [30]: 102% | activity at 1 µM [31]: 73% | activity at 1 µM [32]: 124% | activity at 1 µM [33]: 101% | activity at 1 µM [34]: 64% | activity at 1 µM [35]: 100% | activity at 1 µM [36]: 105% | activity at 1 µM [37]: 98%
